These results are taken from US9315489B2, “Compounds and compositions for inhibiting the activity of ABL1, ABL2 and BCR-ABL1” (Novartis AG, priority 2012, dated 2016).

Like-named read-outs stand apart in the source and are kept apart here.

Data set [1] concerns Ba/F3-BCR-ABL1-WT cells. In words: Ba/F3-BCR-ABL1-WT cellular proliferation assay. To be noted: Mus musculus, read-out: Ba/F3-BCR-ABL1-WT IC50. In kind it is cell-based, murine.
Text: The murine bone marrow-derived cell line Ba/F3 was used to generate the appropriate cell line models. Ba/F3 cells were obtained from the German Collection of Microorganisms and Cell Cultures (DSMZ, Braunschweig and DSMZ No. ACC 300). […] These cells are referred to as Ba/F3-WT.
To generate Ba/F3 cells that depend on BCR-ABL1 expression for growth and survival, Ba/F3 cells were engineered to express BCR-ABL1 using retroviral transduction with a MSCV based retroviral vector containing a p210 BCR-ABL1expression cassette. […] These cells are referred to as Ba/F3-BCR-ABL1-WT.
Ba/F3-WT cells were maintained in RPMI1640 media with L-glutamine, HEPES (Lonza), 10% FBS (Gibco) and 5 ng/ml IL-3 (Calbiochem).
For each cell line, the cell density was adjusted to 50 000 cells/mL and 50 μL (2500 cells) added per well of a 384-well assay plate.
Test compounds were resuspended in DMSO at a concentration of 10 mM. A serial three-fold dilution of each compound with DMSO was performed in 384-well plates using the Janus Liquid Dispenser (PerkinElmer). Compound was delivered to the assay plates containing 2500 cells in a 50 μL volume via Acoustic delivery from an ATS-100 (EDC).
Cells were incubated at 37° C. in a humidified environment with 5% carbon dioxide for 48 hours. Britelite plus solution (Perkin Elmer) was prepared according to the manufacturer's instructions and 25 μL added to each well of the assay plate. […] The degree of luminescence correlates with the number of cells in each well. The effect of each inhibitor concentration can therefore be calculated and IC50 values generated.
Data set [2] can be described thus: Compound concentration in mouse brain and plasma. In kind it is in vivo. The settings on record: 5 minutes after a single intravenous injection of 1 mg/kg in mice.
Experimental: Approximately two parts volume of MeOH/water (2/8 v/v) were added to the preweighted brain samples (˜250 mg) and subsequently homogenized using Covaris™ instrument. A 50 μL aliquot was subjected to protein precipitation and analysis as described below.
Fifty μL aliquots of blood or brain homogenate from animals treated with c-ABL inhibitors were first spiked with 5 μL of the internal standard (N-(4-methyl-3-((4-(6-methylpyridin-3-yl)pyrimidin-2-yl)amino)phenyl)-4-((4-methylpiperazin-1-yl)methyl)benzamide for positive ion mode 5-chloro-N-(4-(N-(cyclohexylcarbamoyl)sulfamoyl)-phenethyl)-2-methoxybenzamide for negative ion mode, respectively), subsequently deproteinated by adding MeCN (200 μL), centrifuged, the supernatant evaporated to dryness, and re-dissolved in 100 μL of a MeOH/water (1/1 v/v). Five μL were subjected to HPLC-MS/MS analysis. Chromatographic separation from interfering endogenous and exogenous contaminants was achieved on an Phenomenex™ Polar RP reversed-phase HPLC column (particle size: 2.5 μm; column dimensions: 2×50 mm) using a linear gradient of 100% water containing 1% formic acid (A), and MeOH supplemented with 1% formic acid (B), which was run over 6.0 min from 5% to 90% B, then kept at 100% B for 1.0 min, and a subsequent 1.5 min postrun with re-equilibration of the column. The column was kept at 50° C. The flow of 350 μL/min from the HPLC system (Flux Rheos Allegro LC pump and CTC Pal autosampler) was directly introduced into the ion source of an Finnigan™ Quantum Ultra MS-detector (triple stage quadrupole mass analyzer) and subjected to heated electrospray ionization (HESI).
c-ABL inhibitors were specifically detected using multiple reaction monitoring from their quasi-molecular parent ion ([M+H]^+ or [M−H]^−) to specific daughter ions as given in the table below. Quantification of blood and brain levels of c-ABL inhibitors compounds were based on a 6-level calibration curve made in triplicate.
Data set [3] deals with ABL1 (64-515) (Homo sapiens (Human), UniProt P00519). Description: Radio ABL1 (64-515) assay (radiometric filter-binding). Format: biochemical.
ABL1 (64-515), sequence (P00519 64-515): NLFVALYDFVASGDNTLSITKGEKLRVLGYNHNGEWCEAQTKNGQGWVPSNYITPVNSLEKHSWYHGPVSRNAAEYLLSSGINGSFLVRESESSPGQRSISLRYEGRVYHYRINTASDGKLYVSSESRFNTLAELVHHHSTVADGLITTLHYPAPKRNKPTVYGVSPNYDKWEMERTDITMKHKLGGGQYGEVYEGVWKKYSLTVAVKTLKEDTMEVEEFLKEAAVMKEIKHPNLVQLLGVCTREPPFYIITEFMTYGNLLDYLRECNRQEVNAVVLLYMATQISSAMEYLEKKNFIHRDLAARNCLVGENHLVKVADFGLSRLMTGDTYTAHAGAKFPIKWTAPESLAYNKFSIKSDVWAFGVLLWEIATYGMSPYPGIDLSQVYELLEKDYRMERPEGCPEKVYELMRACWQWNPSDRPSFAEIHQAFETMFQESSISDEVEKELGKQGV
Experimental: For determination of ABL kinase activity, the radiometric filter-binding assay was used. […] Pre-incubation of enzyme with compounds (when stated) was performed by exposing the enzyme to compounds prior to addition of the substrate mixture (ATP and/or peptide substrate). […] Millipore, Volketswil, Switzerland) prepared according to the manufacturer's instructions. Filter-plates were washed 3× with 0.5% H3PO4, followed by addition of 30 μL scintillation cocktail (Microscint, Perkin Elmer) per well and then analysed in a TopCount NXT scintillation counter (Perkin Elmer). Results were expressed as IC50 values.

Regarding `O=C(Nc1ccc(OC(F)(F)F)cc1)c1cccc(-c2cncnc2)c1` [Example 1, 3-(Pyrimidin-5-yl)-N-(4-(trifluoromethoxy)phenyl)benzamide], in data set [1] (48 h), the IC50 turned out to be 150 nM. In data set [2], the “Mean brain (drug concentration in brain)” value was determined as 4946 pmol/g. For the same compound, in data set [2] (mouse, plasma, read-out: Mean blood (drug concentration in plasma)), the concentration at 5 min was found to be 1160 nM.

Take `O=C(Nc1ccc(OC(F)(F)F)cc1)c1cccc(-c2cnc(OCCO)nc2)c1` [Example 2, 3-(2-(2-Hydroxyethoxy)pyrimidin-5-yl)-N-(4-(trifluoromethoxy)phenyl)benzamide]: the IC50 in data set [3] was 6.5 nM.

`N#Cc1cncc(-c2cccc(C(=O)Nc3ccc(OC(F)(F)F)cc3)c2)c1` [Example 3, 3-(5-Cyanopyridin-3-yl)-N-(4-(trifluoromethoxy)phenyl)benzamide]: the IC50 in data set [3] was 3.9 nM.

As for `Nc1cnc(-c2cccc(C(=O)Nc3ccc(OC(F)(F)F)cc3)c2)cn1` [Example 4, 3-(5-Aminopyrazin-2-yl)-N-(4-(trifluoromethoxy)phenyl)benzamide], the IC50 in data set [3] was 7 nM.

In data set [3], `O=C(Nc1ccc(OC(F)(F)F)cc1)c1cccc(-c2cnccn2)c1` [Example 5, 3-(Pyrazin-2-yl)-N-(4-(trifluoromethoxy)phenyl)benzamide] had an IC50 of 3.1 nM.

Take `COC(=O)c1cc(-c2cccc(C(=O)Nc3ccc(OC(F)(F)F)cc3)c2)cs1` [Example 6, Methyl 4-(3-((4-(trifluoromethoxy)phenyl)carbamoyl)phenyl)thiophene-2-carboxylate]: the values for the IC50 in data set [3] and in data set [1] (48 hours) were 3.3 nM and 1060 nM, respectively.

Turning to `O=C(Nc1ccc(OC(F)(F)F)cc1)c1cccc(-c2ccc(CN3CCCC3)s2)c1` [Example 7, 3-(5-(Pyrrolidin-1-ylmethyl)thiophen-2-yl)-N-(4-(trifluoromethoxy)phenyl)benzamide], the IC50 in data set [3] was less than 3 nM.

Consider `O=C(Nc1ccc(OC(F)(F)F)cc1)c1cccc(-n2ccnc2)c1` [Example 8, 3-(1H-Imidazol-1-yl)-N-(4-(trifluoromethoxy)phenyl)benzamide], for which, in data set [3], the IC50 was found to be 1.9 nM.

As for `O=C(Nc1ccc(OC(F)(F)F)c(F)c1)c1cccc(-c2cncnc2)c1` [Example 9, N-(3-Fluoro-4-(trifluoromethoxy)phenyl)-3-(pyrimidin-5-yl)benzamide], the IC50 in data set [3] is 22 nM; in data set [1] (48 hours), 89 nM.

With `O=C(Nc1ccc(CC(F)(F)F)cc1)c1cccc(-c2cncnc2)c1` [Example 12, 3-(Pyrimidin-5-yl)-N-(4-(2,2,2-trifluoroethyl)phenyl)benzamide], in data set [1] (48 hours), the IC50 turned out to be 148 nM.

`O=C(Nc1ccc(OC(F)(F)F)cc1)c1ccc(F)c(-c2cncnc2)c1` [Example 18, 4-fluoro-3-(pyrimidin-5-yl)-N-(4-(trifluoromethoxy)phenyl)benzamide] displayed an IC50 in data set [3] of 3.2 nM.

Turning to `COc1ncc(-c2cc(C(=O)Nc3ccc(OC(F)(F)F)cc3)ccc2F)cn1` [Example 19, 4-fluoro-3-(2-methoxypyrimidin-5-yl)-N-(4-(trifluoromethoxy)phenyl)benzamide], the IC50 in data set [3] came out at 12 nM.

As for `O=C(Nc1ccc(OC(F)(F)F)cc1)c1ccc(F)c(-c2cccnc2)c1` [Example 20, 4-fluoro-3-(pyridin-3-yl)-N-(4-(trifluoromethoxy)phenyl)benzamide], in data set [3], the IC50 is 13 nM.

In data set [3], `Cn1cc(-c2cc(C(=O)Nc3ccc(OC(F)(F)F)cc3)ccc2F)cn1` [Example 22, 4-fluoro-3-(1-methyl-1H-pyrazol-4-yl)-N-(4-(trifluoromethoxy)phenyl)benzamide] displayed an IC50 of 35 nM.

On to `O=C(Nc1ccc(OC(F)(F)F)cc1)c1ccc(F)c(-c2cc[nH]n2)c1` [Example 23, 4-fluoro-3-(1H-pyrazol-3-yl)-N-(4-(trifluoromethoxy)phenyl)benzamide], for which the IC50 in data set [3] was found to be 31 nM; in data set [1] (48 hours) it was 693 nM.

For `O=C(Nc1ccc(OC(F)(F)F)cc1)c1ccc(Cl)c(-c2cncnc2)c1` [Example 24, 4-chloro-3-(pyrimidin-5-yl)-N-(4-(trifluoromethoxy)phenyl)benzamide], the IC50 in data set [3] is less than 3 nM.

`COc1ncc(-c2cc(C(=O)Nc3ccc(OC(F)(F)F)cc3)ccc2Cl)cn1` [Example 25, 4-chloro-3-(2-methoxypyrimidin-5-yl)-N-(4-(trifluoromethoxy)phenyl)benzamide]: the IC50 in data set [3] came to 8.1 nM.

In data set [3], `O=C(Nc1ccc(OC(F)(F)F)cc1)c1ccc(Cl)c(-c2cccnc2)c1` [Example 26, 4-chloro-3-(pyridin-3-yl)-N-(4-(trifluoromethoxy)phenyl)benzamide] gave an IC50 of 13 nM.

Compound `O=C(Nc1ccc(OC(F)(F)F)cc1)c1ccc(Cl)c(-c2ccncc2)c1` [Example 27, 4-chloro-3-(pyridin-4-yl)-N-(4-(trifluoromethoxy)phenyl)benzamide] yielded an IC50 in data set [3] of 31 nM.

Consider `COc1ccc(C(=O)Nc2ccc(OC(F)(F)F)cc2)cc1-c1cccnc1` [Example 31, 4-methoxy-3-(pyridin-3-yl)-N-(4-(trifluoromethoxy)phenyl)benzamide], for which the IC50 in data set [3] is 3.2 nM.

`COc1ccc(C(=O)Nc2ccc(OC(F)(F)F)cc2)cc1-c1ccc(F)nc1` [Example 32, 3-(6-fluoropyridin-3-yl)-4-methoxy-N-(4-(trifluoromethoxy)phenyl)benzamide] returned an IC50 in data set [3] of 3.4 nM.

`COc1ccc(C(=O)Nc2ccc(OC(F)(F)F)cc2)cc1-c1ccncc1` [Example 33, 4-methoxy-3-(pyridin-4-yl)-N-(4-(trifluoromethoxy)phenyl)benzamide] returned an IC50 in data set [3] of 8.7 nM.

With `COc1ccc(C(=O)Nc2ccc(OC(F)(F)F)cc2)cc1-c1cc[nH]n1` [Example 34, 4-methoxy-3-(1H-pyrazol-3-yl)-N-(4-(trifluoromethoxy)phenyl)benzamide], the results for the IC50 in data set [3] and in data set [1] (48 hours) were 13 nM and 77 nM, respectively.

In data set [3], `COc1ccc(C(=O)Nc2ccc(OC(F)(F)F)cc2)cc1-c1ccc2c(c1)OCO2` [Example 35, 3-(Benzo[d][1,3]dioxol-5-yl)-4-methoxy-N-(4-(trifluoromethoxy)phenyl)benzamide] gave an IC50 of 9.9 nM.

In data set [3], `COc1ccc(C(=O)Nc2ccc(OC(F)(F)F)cc2)cc1-c1ccc(C(C)=O)s1` [Example 36, 3-(5-Acetylthiophen-2-yl)-4-methoxy-N-(4-(trifluoromethoxy)phenyl)benzamide] registered an IC50 of 3.4 nM.

`O=C(Nc1ccc(OC(F)(F)F)cc1)c1ccc(OCCO)c(-c2cncnc2)c1` [Example 38, 4-(2-Hydroxyethoxy)-3-(pyrimidin-5-yl)-N-(4-(trifluoromethoxy)phenyl)benzamide] registered an IC50 in data set [3] of less than 3 nM.

`CC(C)CN1CCN(CCOc2ccc(C(=O)Nc3ccc(OC(F)(F)F)cc3)cc2-c2cncnc2)CC1` [Example 39, 4-(2-(4-Isobutylpiperazin-1-yl)ethoxy)-3-(pyrimidin-5-yl)-N-(4-(trifluoromethoxy)phenyl)benzamide]: in data set [3], the IC50 is less than 3 nM.

In data set [3], `O=C(Nc1ccc(OC(F)(F)F)cc1)c1ccc(O)c(-c2cncnc2)c1` [Example 41, 4-Hydroxy-3-(pyrimidin-5-yl)-N-(4-(trifluoromethoxy)phenyl)benzamide] gave an IC50 of 13 nM.

`O=C(Nc1ccc(OC(F)(F)F)cc1)c1cncc(-c2cncnc2)c1` [Example 42, 5-(Pyrimidin-5-yl)-N-(4-(trifluoromethoxy)phenyl)nicotinamide]: the IC50 in data set [1] (48 h) is 29 nM.

Consider `COc1ncc(C(=O)Nc2ccc(OC(F)(F)F)cc2)cc1-c1cncnc1` [Example 49, 6-Methoxy-5-(pyrimidin-5-yl)-N-(4-(trifluoromethoxy)phenyl)nicotinamide], for which the IC50 in data set [3] was less than 3 nM; in data set [1] (48 hours), 47 nM.

Consider `O=C(Nc1ccc(OC(F)(F)F)cc1)c1cnc(OCCNCCO)c(-c2cncnc2)c1` [Example 50, 6-(2-((2-Hydroxyethyl)amino)ethoxy)-5-(pyrimidin-5-yl)-N-(4-(trifluoromethoxy)phenyl)nicotinamide], for which the IC50 in data set [3] stood at 4.2 nM.

In data set [3], `O=C(Nc1ccc(OC(F)(F)F)cc1)c1cccc(-c2cncnc2)c1F` [Example 60, 2-Fluoro-3-(pyrimidin-5-yl)-N-(4-(trifluoromethoxy)phenyl)benzamide] displayed an IC50 of 36 nM.

In the case of `COc1ncccc1-c1cncc(C(=O)Nc2ccc(OC(F)(F)F)cc2)c1` [Example 62, 2′-Methoxy-N-(4-(trifluoromethoxy)phenyl)-[3,3′-bipyridine]-5-carboxamide], in data set [3], the IC50 came out at 69 nM.

Take `O=C(Nc1ccc(OC(F)(F)F)cc1)c1cncc(-c2cccnc2O)c1` [Example 63, 2′-Hydroxy-N-(4-(trifluoromethoxy)phenyl)-[3,3′-bipyridine]-5-carboxamide]: the IC50 in data set [3] turned out to be 77 nM.

In the case of `O=C(Nc1ccc(OC(F)(F)F)cc1)c1cnc(Cl)c(-c2ncc[nH]2)c1` [Example 65, 6-Chloro-5-(1H-imidazol-2-yl)-N-(4-(trifluoromethoxy)phenyl)nicotinamide], the values for the IC50 in data set [3] and in data set [1] (48 hours) were 5 nM and 184 nM, respectively.

With `COc1ncc(-c2cc(C(=O)Nc3ccc(OC(F)(F)F)cc3)ccn2)cn1` [Example 69, 2-(2-Methoxypyrimidin-5-yl)-N-(4-(trifluoromethoxy)phenyl)isonicotinamide], the IC50 in data set [3] is less than 3 nM.

In the case of `O=C(Nc1ccc(OC(F)(F)F)cc1)c1ccnc(-c2cncnc2)c1` [Example 70, 2-(Pyrimidin-5-yl)-N-(4-(trifluoromethoxy)phenyl)isonicotinamide], in data set [3], the IC50 was 13 nM.

Regarding `O=C(Nc1ccc(OC(F)(F)F)cc1)c1cncc(-c2cncnc2)n1` [Example 71, 6-(pyrimidin-5-yl)-N-(4-(trifluoromethoxy)phenyl)pyrazine-2-carboxamide], the IC50 in data set [3] is 660 nM.

In turn, `O=C(Nc1ccc(OC(F)(F)F)cc1)c1cc(-c2cncnc2)ccn1` [Example 72, 4-(pyrimidin-5-yl)-N-(4-(trifluoromethoxy)phenyl)picolinamide] registered an IC50 in data set [3] of 650 nM.
